The values below come from the supplement of paper PMC10331698.

Common to all, as to assay: level (log10 ratio to DMSO vehicle control); higher = higher biomarker level / cell amount than vehicle control
Conditions in all cases: in DMSO

Compound in assay [1]: O=S(=O)(O)C(F)(F)C(F)(F)C(F)(F)C(F)(F)F [Perfluorobutanesulfonic acid]
As for the experimental part:
(§1)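 BioMAP Diversity Plus panel of 12 human primary cell co-culture systems (3C, 4H, LPS, SAg, BT, BF4T, BE3C, CASM3C, HDF3CGF, KF3CT, MyoF, Mphg). Compounds were added 1 h before stimulation and left for 24 h (MyoF 48 h; BT 72 h for soluble read-outs or 6 d for IgG). Biomarkers were read by ELISA, cytotoxicity by SRB, PBMC viability and proliferation by Alamar Blue. Each well value was divided by the mean of 8 DMSO control wells on the same plate and log10 transformed; duplicate blinded samples were tested at 4 concentrations.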

Compound in assay [2]: O=C(O)CCC(F)(F)C(F)(F)C(F)(F)C(F)(F)C(F)(F)F [2H,2H,3H,3H-Perfluorooctanoic acid]
As for the experimental part: as §1

Compound in assay [3]: OCC(F)(F)C(F)(F)C(F)(F)C(F)(F)C(F)(F)C(F)F [1H,1H,7H-Dodecafluoro-1-heptanol]
As for the experimental part: as §1

± gives the standard deviation of the averaged measurements.

In the case of 3C:CCL2/MCP-1, the “level (log10)” value stood at 0.0025 ± 0.05 in assay [1] (6700 nM); 0.0015 ± 0.021 in assay [1] (20000 nM); 0.0355 ± 0.043 in assay [1] (60000 nM); 0.0045 ± 0.015 in assay [2] (6700 nM); 0.006 ± 0.034 in assay [2] (20000 nM); 0.01 ± 0.016 in assay [2] (60000 nM). Besides, the “level (log10)” value was determined as 0.0225 ± 0.021 in assay [3] (6700 nM), 0.0145 ± 0.023 in assay [3] (20000 nM) and 0.0325 ± 0.012 in assay [3] (60000 nM).

With 3C:CD54/ICAM-1, the “level (log10)” value was -0.008 ± 0.0014 in assay [1] (6700 nM); 0.0035 ± 0.0021 in assay [1] (20000 nM); 0.0015 ± 0.0021 in assay [1] (60000 nM); 0.0005 ± 0.0064 in assay [2] (6700 nM); -0.0055 ± 0.018 in assay [2] (20000 nM); -0.0175 ± 0.022 in assay [2] (60000 nM). The entries for the “level (log10)” value in assay [3] (6700 nM), in assay [3] (20000 nM) and in assay [3] (60000 nM) were -0.009 ± 0.011, -0.003 ± 0.0099 and -0.0055 ± 0.0021, respectively.

As to 3C:CD62E/E-Selectin, the “level (log10)” value is -0.0165 ± 0.022 in assay [1] (6700 nM); -0.008 ± 0.021 in assay [1] (20000 nM); 0.0045 ± 0.021 in assay [1] (60000 nM); -0.01 ± 0.038 in assay [2] (6700 nM); -0.015 ± 0.058 in assay [2] (20000 nM); 0.006 ± 0.033 in assay [2] (60000 nM). Further, the entries for the “level (log10)” value in assay [3] (6700 nM), in assay [3] (20000 nM) and in assay [3] (60000 nM) were -0.0135 ± 0.025, -0.007 ± 0.0042 and 0.0205 ± 0.025, respectively.

Turning to 3C:CD106/VCAM-1, the “level (log10)” value in assay [1] (6700 nM) is -0.0215 ± 0.015; in assay [1] (20000 nM), -0.016 ± 0.025; in assay [1] (60000 nM) it was -0.006 ± 0.013; in assay [2] (6700 nM), -0.021 ± 0.0057; in assay [2] (20000 nM), -0.0295 ± 0.026; in assay [2] (60000 nM) it was -0.025 ± 0.023. In addition, the results for the “level (log10)” value in assay [3] (6700 nM), in assay [3] (20000 nM) and in assay [3] (60000 nM) were 0.001 ± 0.0042, -0.0245 ± 0.032 and -0.0195 ± 0.016, respectively.

As for 3C:CD141/Thrombomodulin, the “level (log10)” value in assay [1] (6700 nM) was -0.0185 ± 0.049; in assay [1] (20000 nM), -0.019 ± 0.0085; in assay [1] (60000 nM), -0.054 ± 0.0085; in assay [2] (6700 nM), -0.032 ± 0.078; in assay [2] (20000 nM), -0.0295 ± 0.022; in assay [2] (60000 nM), -0.0405 ± 0.029. Also, the “level (log10)” value is -0.007 ± 0.057 in assay [3] (6700 nM), 0.0065 ± 0.044 in assay [3] (20000 nM) and -0.017 ± 0.058 in assay [3] (60000 nM).

As for 3C:CD142/Tissue Factor, the “level (log10)” value was 0.003 ± 0.0028 in assay [1] (6700 nM); 0.001 ± 0.0071 in assay [1] (20000 nM); -0.005 ± 0.038 in assay [1] (60000 nM); 0.009 ± 0.0028 in assay [2] (6700 nM); 0.018 ± 0.0071 in assay [2] (20000 nM); 0.022 ± 0.0085 in assay [2] (60000 nM). The entries for the “level (log10)” value in assay [3] (6700 nM), in assay [3] (20000 nM) and in assay [3] (60000 nM) were 0.001 ± 0.0057, 0.017 ± 0.041 and 0.001 ± 0.05, respectively.

On to BE3C:Keratin 8/18, for which the “level (log10)” value was 0.003 ± 0.0014 in assay [1] (6700 nM); -0.0035 ± 0.00071 in assay [1] (20000 nM); -0.0165 ± 0.0078 in assay [1] (60000 nM); 0.0065 ± 0.0021 in assay [2] (6700 nM); -0.015 ± 0.011 in assay [2] (20000 nM); -0.004 ± 0.0057 in assay [2] (60000 nM). The results for the “level (log10)” value in assay [3] (6700 nM), in assay [3] (20000 nM) and in assay [3] (60000 nM) were -0.004 ± 0.0042, 0.006 ± 0.014 and -0.0135 ± 0.0035, respectively.

As for BE3C:MMP-1, the “level (log10)” value in assay [1] (6700 nM) is 0.0055 ± 0.028; in assay [1] (20000 nM), -0.011 ± 0.0057; in assay [1] (60000 nM) it was 0.019 ± 0.013; in assay [2] (6700 nM), 0.019 ± 0.013; in assay [2] (20000 nM), 0.0225 ± 0.028; in assay [2] (60000 nM), 0.072 ± 0.048. Also, the “level (log10)” value in assay [3] (6700 nM) is 0.0045 ± 0.022; in assay [3] (20000 nM), 0 ± 0.025; in assay [3] (60000 nM), 0.029 ± 0.0057.

As for BE3C:MMP-9, the “level (log10)” value in assay [1] (6700 nM) was -0.0125 ± 0.016; in assay [1] (20000 nM), -0.0205 ± 0.0035; in assay [1] (60000 nM), -0.0315 ± 0.0092; in assay [2] (6700 nM), -0.0025 ± 0.025; in assay [2] (20000 nM), -0.003 ± 0.014; in assay [2] (60000 nM), 0.0195 ± 0.033. Also, the “level (log10)” value in assay [3] (6700 nM) was -0.009 ± 0.0028; in assay [3] (20000 nM) it was -0.0105 ± 0.00071; in assay [3] (60000 nM), -0.02 ± 0.0028.

Take BE3C:PAI-I: the “level (log10)” value is -0.0015 ± 0.0035 in assay [1] (6700 nM); -0.006 ± 0.013 in assay [1] (20000 nM); 0.008 ± 0.013 in assay [1] (60000 nM); -0.0035 ± 0.0064 in assay [2] (6700 nM); 0.027 ± 0.011 in assay [2] (20000 nM); 0.044 ± 0.0057 in assay [2] (60000 nM). The “level (log10)” value in assay [3] (6700 nM) is -0.007 ± 0.0057; in assay [3] (20000 nM) it was -0.009 ± 0.0099; in assay [3] (60000 nM) it was -0.0105 ± 0.0078.

As for BE3C:SRB, the “level (log10)” value was 0.001 in assay [1] (6700 nM); -0.004 ± 0.0028 in assay [1] (20000 nM); -0.003 ± 0.0014 in assay [1] (60000 nM); 0.003 ± 0.0028 in assay [2] (6700 nM); -0.0015 ± 0.005 in assay [2] (20000 nM); 0.012 ± 0.018 in assay [2] (60000 nM). For the same test system, the figures for the “level (log10)” value in assay [3] (6700 nM), in assay [3] (20000 nM) and in assay [3] (60000 nM) were 0.001 ± 0.0071, -0.009 ± 0.011 and 0.0025 ± 0.00071, respectively.

With BE3C:tPA, the “level (log10)” value in assay [1] (6700 nM) is 0.0155 ± 0.022; in assay [1] (20000 nM) it was -0.0135 ± 0.0078; in assay [1] (60000 nM), 0 ± 0.025; in assay [2] (6700 nM), -0.0005 ± 0.005; in assay [2] (20000 nM) it was -0.0035 ± 0.013; in assay [2] (60000 nM), 0.0265 ± 0.013. The “level (log10)” value in assay [3] (6700 nM) is -0.0125 ± 0.0064; in assay [3] (20000 nM), -0.0285 ± 0.018; in assay [3] (60000 nM) it was -0.029 ± 0.018.

Consider BE3C:uPA, for which the “level (log10)” value in assay [1] (6700 nM) is -0.0035 ± 0.0021; in assay [1] (20000 nM), -0.007 ± 0.0042; in assay [1] (60000 nM), -0.005 ± 0.0099; in assay [2] (6700 nM), 0.0025 ± 0.011; in assay [2] (20000 nM) it was -0.009 ± 0.0085; in assay [2] (60000 nM), 0.0025 ± 0.005. In addition, the “level (log10)” value in assay [3] (6700 nM) was -0.0055 ± 0.032; in assay [3] (20000 nM) it was -0.004 ± 0.027; in assay [3] (60000 nM), -0.0055 ± 0.0035.

On to CASM3C:CCL2/MCP-1, for which the “level (log10)” value in assay [1] (6700 nM) was -0.0085 ± 0.0092; in assay [1] (20000 nM) it was -0.0125 ± 0.035; in assay [1] (60000 nM) it was -0.0045 ± 0.021; in assay [2] (6700 nM), -0.002 ± 0.014; in assay [2] (20000 nM), 0.002 ± 0.0042; in assay [2] (60000 nM), 0.013 ± 0.028. The “level (log10)” value in assay [3] (6700 nM) is -0.0065 ± 0.013; in assay [3] (20000 nM), -0.017 ± 0.02; in assay [3] (60000 nM), -0.008 ± 0.033.
